Experimental data reported in patent US4921850A, “3-propenylcephem derivative” (Eisai Co., Ltd., priority 1986, dated 1990).
Values after ≈ are worked out from the molar mass of the structure shown.

Legend:
Format in all cases: cell-based
[1] = system: Enterobacter cloacae E-74; test: Comparison test of anti-bacterial activity (MIC); conditions: E74, 18 h, comparison R1 = CH2F vs CH3
Protocol: (§1) MIC (μg/ml) were determined by an agar dilution method [Chemotherapy (Japan), 29, 76-79, 1981]. Overnight cultures of the bacterial strains in Mueller-Hinton broth were diluted to final concentration of about 10^6 CFU/ml, and 5 μl of each bacterial suspension was spotted onto Mueller-Hinton agar plates that contained twofold serial dilutions of antibiotics. MICs were measured after incubation for 18 hours at 37° C.
(§2) Comparison tests of the anti-bacterial activities were conducted between the compounds of the following formula according to the present invention and the corresponding control compounds wherein R1 represents methyl group. Measurements of MIC are the same as described in the above item 2.

[2] = system: Xantomonas maltophilia E 04004; test: Comparison test of anti-bacterial activity (MIC); conditions: 18 h, comparison R1 = CH2F vs CH3
Protocol: as §1, §2

[3] = system: Proteus vulgaris E 08042; test: Comparison test of anti-bacterial activity (MIC); conditions: E08042, 18 h, comparison R1 = CH2F vs CH3
Protocol: as §1, §2

[4] = system: Kleb. pneumoniae EK-6; test: Anti-bacterial activity (MIC), agar dilution; conditions: Klebsiella pneumoniae, EK6, 18 h, Kleb. pneumoniae EK-6; agar dilution, about 10^6 CFU/ml, 18 hours, 37° C.; read-out: MIC
How it was run: (§3)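 Read-out is MIC (μg/ml) after 18 hours at 37° C on Mueller-Hinton agar with twofold antibiotic series. Inoculum: overnight broth cultures diluted to ~10^6 CFU/ml, spotted.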

[5] = system: Pseud. aeruginosa EP-01; test: Anti-bacterial activity (MIC), agar dilution; conditions: Pseudomonas aeruginosa, EP01, 18 h, Pseud. aeruginosa EP-01; agar dilution, about 10^6 CFU/ml, 18 hours, 37° C.; read-out: MIC
How it was run: as §3

[6] = system: Morganella morganii EP-14; test: Anti-bacterial activity (MIC), agar dilution; conditions: Morganella morganii, EP14, 18 h, about 10^6 CFU/ml, 37° C., read-out: MIC
How it was run: as §3

[7] = system: Staph. aureus 209-P; test: Anti-bacterial activity (MIC), agar dilution; conditions: Staphylococcus aureus, 209P, 18 h, Staph. aureus 209-P; agar dilution, about 10^6 CFU/ml, 18 hours, 37° C.; read-out: MIC
How it was run: as §3

[8] = system: Ser. marcescens ES-75; test: Anti-bacterial activity (MIC), agar dilution; conditions: Serratia marcescens, ES75, 18 h, Ser. marcescens ES-75; agar dilution, about 10^6 CFU/ml, 18 hours, 37° C.; read-out: MIC
How it was run: as §3

[9] = system: Escher. coli NIHJ; test: Anti-bacterial activity (MIC), agar dilution; conditions: Escherichia coli, 18 h, Escher. coli NIHJ; agar dilution, about 10^6 CFU/ml, 18 hours, 37° C.; read-out: MIC
How it was run: as §3

[10] = system: Staph. aureus E 31106; test: Comparison test of anti-bacterial activity (MIC); conditions: Staphylococcus aureus, E31106, 18 h, comparison R1 = CH2F vs CH3
Protocol: as §1, §2

MIC [1] [µg/mL]	MIC [2] [µg/mL]	MIC [3] [µg/mL]	MIC [4] [µg/mL]	MIC [5] [µg/mL]	MIC [6] [µg/mL]	MIC [7] [µg/mL]	MIC [8] [µg/mL]	MIC [9] [µg/mL]	MIC [10] [µg/mL]	Compound
0.1 (≈ 0.2 µM)	25 (≈ 50 µM)	0.1 (≈ 0.2 µM)	0.05 (≈ 0.1 µM)	0.8 (≈ 1.6 µM)	0.05 (≈ 0.1 µM)	0.2 (≈ 0.4 µM)	0.1 (≈ 0.2 µM)	0.05 (≈ 0.1 µM)	3.13 (≈ 6.27 µM)	C[N+](C)(C)C/C=C/C1=C(C(=O)[O-])N2C(=O)[C@@H](NC(=O)/C(=N\OCF)c3nsc(N)n3)[C@H]2SC1 [Example 128, 7β-[2-(5-Amino-1,2,4-thiadiazol-3-yl)-(Z)-2-fluoromethoxyiminoacetamido]-3-[(E)-3-(trimethylammonio)-1-propen-1-yl]-3-cephem-4-carboxylate]
≤ 0.025	6.25 (≈ 11.1 µM)	≤ 0.025	≤ 0.025	0.8 (≈ 1.42 µM)	≤ 0.025	0.1 (≈ 0.178 µM)	0.05 (≈ 0.0889 µM)	≤ 0.025	3.13 (≈ 5.56 µM)	NC(=O)c1cc[n+](C/C=C/C2=C(C(=O)[O-])N3C(=O)[C@@H](NC(=O)/C(=N\OCF)c4nsc(N)n4)[C@H]3SC2)cc1 [Example 127, 7β-[2-(5-Amino-1,2,4-thiadiazol-3-yl)-(Z)-2-fluoromethoxyiminoacetamido]-3-[(E)-3-(4-carbamoylpyridinio)-1-propen-1-yl]-3-cephem-4-carboxylate]
0.05 (≈ 0.0951 µM)	12.5 (≈ 23.8 µM)	0.05 (≈ 0.0951 µM)	≤ 0.025	0.8 (≈ 1.52 µM)	≤ 0.025	0.1 (≈ 0.19 µM)	0.05 (≈ 0.0951 µM)	≤ 0.025	1.56 (≈ 2.97 µM)	C[N+]1(C/C=C/C2=C(C(=O)[O-])N3C(=O)[C@@H](NC(=O)/C(=N\OCF)c4nsc(N)n4)[C@H]3SC2)CCCC1 [Example 126, 7β-[2-(5-Amino-1,2,4-thiadiazol-3-yl)-(Z)-2-fluoromethoxyiminoacetamido]-3-[(E)-3-(1-methylpyrrolidinio)-1-propen-1-yl]-3-cephem-4-carboxylate]
0.4 (≈ 0.71 µM)	25 (≈ 44.4 µM)	0.2 (≈ 0.355 µM)	≤ 0.025	1.56 (≈ 2.77 µM)	≤ 0.025	0.4 (≈ 0.71 µM)	≤ 0.025	≤ 0.025	6.25 (≈ 11.1 µM)	Nc1nc(/C(=N/OCF)C(=O)N[C@@H]2C(=O)N3C(C(=O)[O-])=C(/C=C/C[n+]4ccc(C(=O)O)cc4)CS[C@H]23)ns1 [Example 125, 7β-[2-(5-Amino-1,2,4-thiadiazol-3-yl)-(Z)-2-fluoromethoxyiminoacetamido]-3-[(E)-3-(4-carboxypyridinio)-1-propen-1-yl]-3-cephem-4-carboxylate]

Second part, the compound before the results:

Compound	MIC [1] [µg/mL]	MIC [2] [µg/mL]	MIC [3] [µg/mL]	MIC [4] [µg/mL]	MIC [5] [µg/mL]	MIC [6] [µg/mL]	MIC [7] [µg/mL]	MIC [8] [µg/mL]	MIC [9] [µg/mL]	MIC [10] [µg/mL]
CO/N=C(\C(=O)N[C@@H]1C(=O)N2C(C(=O)[O-])=C(/C=C/C[N+]3(C)CCCC3)CS[C@H]12)c1nsc(N)n1 [CH3 (Control) to Example 126, reference compound]	0.1 (≈ 0.197 µM)	100 (≈ 197 µM)	1.56 (≈ 3.07 µM)	–	–	–	–	–	–	–
CO/N=C(\C(=O)N[C@@H]1C(=O)N2C(C(=O)[O-])=C(/C=C/C[n+]3ccc(C(N)=O)cc3)CS[C@H]12)c1nsc(N)n1 [CH3 (Control) to Example 127, reference compound]	0.4 (≈ 0.735 µM)	50 (≈ 91.8 µM)	3.13 (≈ 5.75 µM)	–	–	–	–	–	–	6.25 (≈ 11.5 µM)
CO/N=C(\C(=O)N[C@@H]1C(=O)N2C(C(=O)[O-])=C(/C=C/C[N+](C)(C)C)CS[C@H]12)c1nsc(N)n1 [CH3 (Control) to Example 128, reference compound]	0.2 (≈ 0.415 µM)	> 100	6.25 (≈ 13 µM)	–	–	–	–	–	–	6.25 (≈ 13 µM)
CO/N=C(\C(=O)N[C@@H]1C(=O)N2C(C(=O)[O-])=C(/C=C/C[n+]3ccc(C(=O)O)cc3)CS[C@H]12)c1nsc(N)n1 [CH3 (Control) to Example 125, reference compound]	3.13 (≈ 5.74 µM)	50 (≈ 91.6 µM)	12.5 (≈ 22.9 µM)	–	–	–	–	–	–	12.5 (≈ 22.9 µM)
